For experiment [1], the target named is T1, SSTR4 (Homo sapiens, UniProt P31391).
T1 construct: host or cells: CHO-K1
Description: SSTR4 I-125 somatostatin competition binding assay (CHO-K1 membranes). The settings on record: competition with I-125 somatostatin, membranes from CHO-K1 overexpressing SSTR4; read-out: SSTR4 Binding pIC50 (converted). The method, then:
SSTR4 I-125 Somatostatin Competition Binding Assay
Membranes from CHO-K1 cells overexpressing SSTR4 are purchased from Perkin Elmer (catalog number ES-524-M400UA). Test compounds are suspended in DMSO and then diluted in assay buffer (25 mM HEPES pH 7.4, 10 mM MgCl2, 1 mM CaCl2), 0.5% BSA) plus 0.2 nM I-125 labeled somatostatin (Perkin Elmer catalog number NEX389). Fifty μL of compound/I-125 somatostatin in assay buffer are added per well to 96-well poly-propylene plate. Then 1 μg of SSTR4 membranes in 50 μL assay buffer are added per well. The Plate is incubated for 60 minutes at room temperature. FilterMat A filters (Perkin Elmer catalog number 1450-421) are pre-soaked in 0.5% PEI (Sigma catalog number P3143). The contents of the assay plate are transferred to filters with a TomTech harvester and washed 5 times with 20 mM HEPES, 100 mM NaCl. The filters are dried in a microwave oven then transferred to sample bag containing a scintillator sheet (Perkin Elmer catalog number 1450-441). The scintillator sheets are melted to filters using a heat block. The filters are then read in a MicroBeta scintillation counter. Binding Ki curves are generated using Activity Base for Screening Data Management and the results are reported as pIC50.

For another experiment, the target named is T2, SSTR1 (Homo sapiens, UniProt P30872).
T2 construct: purchased Perkin Elmer ES-520-M400UA; host or cells: CHO-K1 membranes
T2 sequence (P30872 whole entry): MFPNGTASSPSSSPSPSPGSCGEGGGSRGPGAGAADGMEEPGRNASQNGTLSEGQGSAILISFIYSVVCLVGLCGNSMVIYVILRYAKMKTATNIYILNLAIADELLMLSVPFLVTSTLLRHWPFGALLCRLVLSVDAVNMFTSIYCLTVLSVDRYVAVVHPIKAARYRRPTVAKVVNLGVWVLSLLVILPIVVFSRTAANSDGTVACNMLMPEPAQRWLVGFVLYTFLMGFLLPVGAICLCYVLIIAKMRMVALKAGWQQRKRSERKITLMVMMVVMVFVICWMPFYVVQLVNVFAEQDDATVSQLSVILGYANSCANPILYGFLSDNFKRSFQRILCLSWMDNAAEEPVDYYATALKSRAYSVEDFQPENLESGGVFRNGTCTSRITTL
The experiment in a line: SSTR1 I-125 somatostatin competition binding assay for selectivity versus SSTR1 (CHO-K1 membranes). The settings on record: competition with I-125 somatostatin, membranes from CHO-K1 overexpressing SSTR1; read-out: SSTR1 Binding pIC50 (converted). The procedure: SSTR1 I-125 Somatostatin Competition Binding Assay for Selectivity Versus SSTR1
Membranes from CHO-K1 cells overexpressing SSTR1 are purchased from Perkin Elmer (catalog number ES-520-M400UA). Test compounds are suspended in DMSO and then diluted in assay buffer (25 mM HEPES pH 7.4, 10 mM MgCl2, 1 mM CaCl2), 0.5% BSA) plus 0.4 nM I-125 labeled somatostatin (Perkin Elmer catalog number NEX389). Fifty μL of compound/I-125 somatostatin in assay buffer are added per well to 96-well poly-propylene plate. Then 10 μg of SSTR1 membranes in 50 μL assay buffer are added per well. The plate is incubated for 60 minutes at room temperature. FilterMat A filters (Perkin Elmer catalog number 1450-421) are pre-soaked in 0.5% PEI (Sigma catalog number P3143). The contents of the assay plate are transferred to filters with a TomTech harvester and washed 5 times with 20 mM HEPES, 100 mM NaCl. The filters are dried in a microwave oven then transferred to sample bag containing a scintillator sheet (Perkin Elmer catalog number 1450-441). The scintillator sheets are melted to the filters using a heat block. The filters are then read in a MicroBeta scintillation counter. Binding Ki curves are generated using Activity Base for Screening Data Management and the results are reported as pIC50.

Experiment [2] has as its target T1, SSTR4. Description: Inhibition of forskolin stimulated cAMP in CHO-K1 cells overexpressing SSTR4. Format: cell-based. The settings on record: read-out: SSTR4 Activity pEC50 (converted). The procedure:
Inhibition of Forskolin Stimulated cAMP in Cells Overexpressing SSTR4
This cell-based assay measures the ability of compounds to inhibit forskolin stimulated cAMP in CHO-K1 cells overexpressing SSTR4. CHO-K1 cells overexpressing SSTR4 (CHO-SSTR4) are purchased from DiscoveRx (product code 95-0059C2). The CHO-SSTR4 cells are maintained in F12K media with 10% Fetal Bovine Serum (Hyclone), 1% Pen/Strep (Life Technologies), and 800 μg/mL G418 (Life Technologies). To perform the assay, 3000 cells are plated per well in white 384-well plate (Corning 3570) in 50 μL complete media and the cells are allowed to attach for 16 hours in a 37° C., 5% CO2 incubator. The next day, the culture media is removed from the cells and the cells are washed (added then removed) with Krebs Ringer Buffer (ZenBio, KRB-1000 mL). Test compounds are suspended in DMSO and diluted in stimulation buffer: Krebs Ringer Buffer plus 0.5% BSA (Roche), 300 μM IBMX (Sigma), and 350 nM forskolin (Sigma). The cells are incubated in 10 μL compound/stimulation buffer for 30 minutes at room temperature. Cellular cAMP levels are detected with a HTRF LANCE Ultra cAMP kit (Perkin Elmer, catalog number TRF0264).
The assay is performed in accordance with the manufacturer's instructions. Five μL of diluted Eu-W8044 labeled streptavidin (dilution: 1:50 in cAMP Detection Buffer) is added to each well. Then 5 μL of diluted biotin cAMP (dilution: 1:150 in cAMP Detection Buffer) is added to each well. The plates are covered and allowed to incubate for 60 minutes at room temperature on a shaker. HTRF (665 nm/615 nm) is read on a Perkin Elmer ENVISION plate reader. The pEC50 values are generated using Activity Base for Screening Data Management.

T1 sequence (P31391 whole entry): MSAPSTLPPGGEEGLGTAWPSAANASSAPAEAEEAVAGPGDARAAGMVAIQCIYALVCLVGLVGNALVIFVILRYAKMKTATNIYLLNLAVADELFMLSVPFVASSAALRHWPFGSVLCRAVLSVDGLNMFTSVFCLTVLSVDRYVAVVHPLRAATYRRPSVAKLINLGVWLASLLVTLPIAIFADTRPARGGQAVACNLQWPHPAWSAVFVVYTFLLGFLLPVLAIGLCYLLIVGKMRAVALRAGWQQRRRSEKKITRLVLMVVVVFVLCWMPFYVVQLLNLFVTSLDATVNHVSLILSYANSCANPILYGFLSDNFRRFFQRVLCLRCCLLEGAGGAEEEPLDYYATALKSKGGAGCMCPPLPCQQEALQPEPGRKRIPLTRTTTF

For `C[C@@H](C(=O)NC(C)(C)c1nccc2ccccc12)[C@@H]1CCCN1C` (racemic) [Example 110, (R)-N-(2-(isoquinolin-1-yl)propan-2-yl)-2-((S)-1-methylpyrrolidin-2-yl)propanamide and (S)-N-(2-(isoquinolin-1-yl)propan-2-yl)-2-((R)-1-methylpyrrolidin-2-yl)propanamide], the IC50 was 79.4 nM at SSTR4 [1] and 12600 nM at SSTR1. Moreover, the EC50 on SSTR4 [2] is 3.98 nM.

On to `C[C@@H](C(=O)NC(C)(C)c1nccc2ccccc12)[C@H]1CCCN1C` (racemic) [Example 111, (R)-N-(2-(isoquinolin-1-yl)propan-2-yl)-2-((R)-1-methylpyrrolidin-2-yl)propanamide and (S)-N-(2-(isoquinolin-1-yl)propan-2-yl)-2-((S)-1-methylpyrrolidin-2-yl)propanamide], for which the IC50 was 25.1 nM on SSTR4 [1] and 3980 nM at SSTR1. Besides, the EC50 at SSTR4 [2] is 3.16 nM.

For `Cc1cccc2c(C(C)(C)NC(=O)C[C@H]3CCCCN3C)nccc12` (single isomer, unassigned) [Example 8], the IC50 on SSTR4 [1] is 50.1 nM; at SSTR1 it was 3980 nM. For the same compound, the EC50 on SSTR4 [2] was 2.51 nM.

Turning to `Cc1cccc2c(C(C)(C)NC(=O)C[C@@H]3CCCCN3C)nccc12` (single isomer, unassigned) [Example 9], the values for the IC50 at SSTR4 [1] and on SSTR1 were 126 nM and 7940 nM, respectively. The EC50 on SSTR4 [2] is 12.6 nM.

Regarding `CN1CCCC[C@@H]1CC(=O)NC(C)(C)c1nccc2occc12` (single isomer, unassigned) [Example 14], the IC50 at SSTR4 [1] is 79.4 nM; at SSTR1 it was 25100 nM. Also, the EC50 at SSTR4 [2] was 6.31 nM.

Regarding `CN1CCCC[C@H]1CC(=O)NC(C)(C)c1nccc2occc12` (single isomer, unassigned) [Example 15], at SSTR4 [1], the IC50 is 316 nM. For the same compound, the EC50 on SSTR4 [2] is 25.1 nM.

In the case of `Cc1cccc2c(C(C)(C)NC(=O)C[C@H]3CCCCN3C)noc12` (single isomer, unassigned) [Example 43], the results for the IC50 on SSTR4 [1] and at SSTR1 were 20 nM and 3980 nM, respectively. In addition, at SSTR4 [2], the EC50 was 2 nM.

As for `Cc1cccc2c(C(C)(C)NC(=O)C[C@@H]3CCCCN3C)noc12` (single isomer, unassigned) [Example 44], the IC50 at SSTR4 [1] is 63.1 nM; at SSTR1 it was 12600 nM. Besides, the EC50 on SSTR4 [2] is 6.31 nM.

For the compound `COc1ccccc1C(C)(C)NC(=O)[C@H](C)CN1CCCC1` (single isomer, unassigned) [Example 75], the results for the IC50 at SSTR4 [1] and at SSTR1 were 31.6 nM and 10000 nM, respectively. In addition, the EC50 at SSTR4 [2] is 2.51 nM.

As to `Cc1cccnc1OCC1(NC(=O)[C@H](C)[C@@H]2CCCN2C)CC1` (single isomer, unassigned) [Example 127], the IC50 at SSTR4 [1] was 126 nM; at SSTR1, 7940 nM. For the same compound, the EC50 at SSTR4 [2] was 7.94 nM.

On to `CN1CCC[C@H]1CC(=O)NC(C)(C)[C@@H]1CCc2ccccc2O1` (single isomer, unassigned) [Example 128], for which the IC50 on SSTR4 [1] was 316 nM; at SSTR1, 10000 nM. Also, the EC50 on SSTR4 [2] was 39.8 nM.

As to `CN1CCC[C@@H]1CC(=O)NC(C)(C)[C@@H]1CCc2ccccc2O1` (single isomer, unassigned) [Example 131], the IC50 on SSTR4 [1] is 251 nM; on SSTR1, 12600 nM. Besides, the EC50 at SSTR4 [2] is 50.1 nM.

As for `COc1c(C)cccc1C(C)(C)NC(=O)[C@@H](C)CN1CCC1` (single isomer, unassigned) [Example 147], the IC50 at SSTR4 [1] was 1580 nM. Further, at SSTR4 [2], the EC50 was 63.1 nM.

Consider `CN1CCCCC1CC(=O)NC(C)(C)c1nccc2occc12` (stereo not drawn) [Example 13, N-(2-(furo[3,2-c]pyridin-4-yl)propan-2-yl)-2-(1-methylpiperidin-2-yl)acetamide], for which the IC50 on SSTR4 [1] was 126 nM. In addition, the EC50 at SSTR4 [2] is 20 nM.

`CCN1CCCC1CC(=O)NC1(COc2ncccc2C)CC1` (stereo not drawn) [Example 63, 2-(1-ethylpyrrolidin-2-yl)-N-(1-(((3-methylpyridin-2-yl)oxy)methyl)cyclopropyl)acetamide]: the IC50 at SSTR4 [1] was 1580 nM. Further, the EC50 on SSTR4 [2] is 63.1 nM.

Consider `COc1c(C)cccc1C(C)(C)NC(=O)C[C@@H]1CCCN1C` [Example 116, (S)-N-(2-(2-methoxy-3-methylphenyl)propan-2-yl)-2-(1-methylpyrrolidin-2-yl)acetamide], for which the EC50 on SSTR4 [2] was 79.4 nM.

Turning to `COc1c(C)cccc1C(C)(C)NC(=O)C[C@H]1CCCN1C` [Example 117, (R)-N-(2-(2-methoxy-3-methylphenyl)propan-2-yl)-2-(1-methylpyrrolidin-2-yl)acetamide], the EC50 at SSTR4 [2] is 158 nM.

`Cc1cccnc1OCC1(NC(=O)CC2CCCCN2C)CC1` (stereo not drawn) [Example 120, 2-(1-methylpiperidin-2-yl)-N-(1-(((3-methylpyridin-2-yl)oxy)methyl)cyclopropyl)acetamide]: the EC50 on SSTR4 [2] is 251 nM.

With `Cc1cccnc1OCC1(NC(=O)C[C@H]2CCCN2C)CC1` [Example 121, (R)-N-(1-(((3-methylpyridin-2-yl)oxy)methyl)cyclopropyl)-2-(1-methylpyrrolidin-2-yl)acetamide], the EC50 on SSTR4 [2] is 631 nM.

As to `CN1CCC[C@H]1CC(=O)NC(C)(C)COc1nccc2ccoc12` [Example 122, (S)-N-(1-(furo[2,3-c]pyridin-7-yloxy)-2-methylpropan-2-yl)-2-(1-methylpyrrolidin-2-yl)acetamide], the EC50 on SSTR4 [2] was 316 nM.

Take `CN1CCC[C@H]1CC(=O)NC(C)(C)COc1ccccn1` [Example 123, (S)-N-(2-methyl-1-(pyridin-2-yloxy)propan-2-yl)-2-(1-methylpyrrolidin-2-yl)acetamide]: the EC50 on SSTR4 [2] is 158 nM.

On to `Cc1cnc(OCC(C)(C)NC(=O)C[C@@H]2CCCN2C)c(Cl)c1` [Example 124, (S)-N-(1-((3-chloro-5-methylpyridin-2-yl)oxy)-2-methylpropan-2-yl)-2-(1-methylpyrrolidin-2-yl)acetamide], for which the EC50 on SSTR4 [2] was 39.8 nM.

Regarding `CN1CCC[C@H]1CC(=O)NC(C)(C)COc1nccc2occc12` [Example 125, (S)-N-(1-(furo[3,2-c]pyridin-4-yloxy)-2-methylpropan-2-yl)-2-(1-methylpyrrolidin-2-yl)acetamide], the EC50 at SSTR4 [2] was 126 nM.

As to `Cc1ccc(C(NC(=O)C[C@@H]2CCCN2C)C(F)(F)F)cc1` (stereo partly drawn) [Example 158, 2-((S)-1-methylpyrrolidin-2-yl)-N-(2,2,2-trifluoro-1-(p-tolyl)ethyl)acetamide], the EC50 on SSTR4 [2] is 398 nM.

Consider `CN1CCC[C@@H]1CC(=O)NC(C)(C)c1ccccc1F` [Example 159, (R)-N-(2-(2-fluorophenyl)propan-2-yl)-2-(1-methylpyrrolidin-2-yl)acetamide], for which the EC50 at SSTR4 [2] was 398 nM.
